Eight compounds from patent publication US5780620A, “Non-reducing oligosaccharides and their production and use” (Kabushiki Kaisha Hayashibara Seibutsu Kagaku Kenkyujo, priority 1993, dated 1998) can be followed below.

Broadly, the LD50 is the dose expected to kill half of the subjects tested. For orientation: solubility means the concentration that dissolves in the medium under given conditions.

A short description of data set [1]: Reducing power by the Somogyi-Nelson method. It is filed as physicochemical. The procedure: Thereafter these high-purity saccharide preparations were tested for reducing power with the Somogyi-Nelson method and their reducing powers were represented in terms of DE.
Data set [2] can be described thus: Acute toxicity in mice upon oral administration. It is filed as in vivo. The settings on record: mouse, in vivo, acute. The procedure:
(§1) High-purity maltosyl maltoside, maltotriosyl maltoside and maltotriosyl maltotrioside prepared by the method in Experiment B-1 were tested for acute toxicity in mice upon oral administration.

In a further data set the test system is mice. As to the kind of experiment: Acute toxicity in mice upon oral administration. In kind it is in vivo. The conditions noted are these: for death: maximum administrable dose. The procedure:
as §1

Data set [3] can be described thus: Solubility of crystals in water. It is filed as physicochemical. The conditions noted are these: purity 99.0%, 25° C. water. The method, then: An alpha-D-maltotriosyl alpha-D-maltotrioside (Substance 3), purity of 97% or higher, prepared by the method in Experiment B-1, was decolored, deionized and concentrated to 70% in usual manner and the concentrate was transferred in a beaker and allowed to stand in 4° C. chilled room for 2 months leading to eduction of crystals. The crystals were centrifugally collected and washed with a minimum amount of water, thus obtaining crystals with a purity of 99.0%.
The physicochemical properties of the crystals as tested were as follows:
Relatively high, about 91 g being soluble in 100 ml of 25° C. water.

A short description of data set [4]: Hygroscopicity of crystalline maltotriosyl maltotrioside. In kind it is physicochemical. The settings on record: varies depending on purity.

Values after ≈ are worked out from the molar mass of the structure shown. Some results are limits rather than exact numbers.

For the compound `OC[C@H]1O[C@H](O[C@H]2O[C@H](CO)[C@@H](O[C@H]3O[C@H](CO)[C@@H](O)[C@H](O)[C@H]3O)[C@H](O)[C@H]2O)[C@H](O)[C@@H](O)[C@@H]1O` [PI, alpha-glucosyl trehalose], the “DE (reducing power)” value in data set [1] is reported as 0.83.
In the case of `OC[C@H]1O[C@H](O[C@H]2O[C@H](CO)[C@@H](O[C@H]3O[C@H](CO)[C@@H](O[C@H]4O[C@H](CO)[C@@H](O)[C@H](O)[C@H]4O)[C@H](O)[C@H]3O)[C@H](O)[C@H]2O)[C@H](O)[C@@H](O)[C@@H]1O` [PII, alpha-maltosyl trehalose], in data set [1], the “DE (reducing power)” value amounted to 0.35.
Same read-out and setting: under `OC[C@H]1O[C@H](O[C@H]2O[C@H](CO)[C@@H](O[C@H]3O[C@H](CO)[C@@H](O[C@H]4O[C@H](CO)[C@@H](O[C@H]5O[C@H](CO)[C@@H](O)[C@H](O)[C@H]5O)[C@H](O)[C@H]4O)[C@H](O)[C@H]3O)[C@H](O)[C@H]2O)[C@H](O)[C@@H](O)[C@@H]1O` [PIII, alpha-maltotriosyl trehalose] stands 0.10; under `OC[C@H]1O[C@H](O[C@H]2O[C@H](CO)[C@@H](O[C@H]3O[C@H](CO)[C@@H](O[C@H]4O[C@H](CO)[C@@H](O[C@H]5O[C@H](CO)[C@@H](O[C@H]6O[C@H](CO)[C@@H](O)[C@H](O)[C@H]6O)[C@H](O)[C@H]5O)[C@H](O)[C@H]4O)[C@H](O)[C@H]3O)[C@H](O)[C@H]2O)[C@H](O)[C@@H](O)[C@@H]1O` [PIV, alpha-maltotetraosyl trehalose], 0.27.
`OC[C@H]1O[C@H](O[C@H]2O[C@H](CO)[C@@H](O[C@H]3O[C@H](CO)[C@@H](O[C@H]4O[C@H](CO)[C@@H](O[C@H]5O[C@H](CO)[C@@H](O[C@H]6O[C@H](CO)[C@@H](O[C@H]7O[C@H](CO)[C@@H](O)[C@H](O)[C@H]7O)[C@H](O)[C@H]6O)[C@H](O)[C@H]5O)[C@H](O)[C@H]4O)[C@H](O)[C@H]3O)[C@H](O)[C@H]2O)[C@H](O)[C@@H](O)[C@@H]1O` [PV, alpha-maltopentaosyl trehalose]: in data set [1], the “DE (reducing power)” value stood at 0.23.
With `OC[C@H]1O[C@H](O[C@H]2[C@H](O)[C@@H](O)[C@@H](O[C@H]3O[C@H](CO)[C@@H](O[C@H]4O[C@H](CO)[C@@H](O)[C@H](O)[C@H]4O)[C@H](O)[C@H]3O)O[C@@H]2CO)[C@H](O)[C@@H](O)[C@@H]1O` [maltosyl maltoside, O-alpha-D-glucopyranosyl-(1→4)-alpha-D-glucopyranosyl alpha-D-maltoside], in data set [2], the median lethal dose (LD50) is at least 50000 mg/kg. In the data set with mice, the acute toxicity entry was “low intoxicity” and the death result is “no death was observed”.
In the case of `OC[C@H]1O[C@H](O[C@H]2[C@H](O)[C@@H](O)[C@@H](O[C@H]3O[C@H](CO)[C@@H](O[C@H]4O[C@H](CO)[C@@H](O[C@H]5O[C@H](CO)[C@@H](O)[C@H](O)[C@H]5O)[C@H](O)[C@H]4O)[C@H](O)[C@H]3O)O[C@@H]2CO)[C@H](O)[C@@H](O)[C@@H]1O` [maltotriosyl maltoside, O-alpha-D-glucopyranosyl-(1→4)-O-alpha-D-glucopyranosyl-(1→4)-alpha-D-glucopyranosyl alpha-D-maltoside], the LD50 in data set [2] is at least 50000 mg/kg. In the data set on mice, the acute toxicity result is “low intoxicity” and the death entry is on record as “no death was observed”.
`OC[C@H]1O[C@H](O[C@H]2[C@H](O)[C@@H](O)[C@@H](O[C@H]3[C@H](O)[C@@H](O)[C@@H](O[C@H]4O[C@H](CO)[C@@H](O[C@H]5O[C@H](CO)[C@@H](O[C@H]6O[C@H](CO)[C@@H](O)[C@H](O)[C@H]6O)[C@H](O)[C@H]5O)[C@H](O)[C@H]4O)O[C@@H]3CO)O[C@@H]2CO)[C@H](O)[C@@H](O)[C@@H]1O` [maltotriosyl maltotrioside, O-alpha-D-glucopyranosyl-(1→4)-O-alpha-D-glucopyranosyl-(1→4)-alpha-D-glucopyranosyl alpha-D-maltotrioside] registered a 50% lethal dose (LD50) in data set [2] of at least 50000 mg/kg. Moreover, the acute toxicity result in the data set on mice is given as “low intoxicity”. Moreover, the death entry in the data set on mice is recorded as “no death was observed”. Moreover, in data set [3], the solubility was about 910 mg/mL (≈ 918 mM). The figures for the hygroscopicity entry in data set [4] (listed as crystalline alpha-D-maltotriosyl alpha-D-maltotrioside) and in data set [4] (listed as crystalline maltotriosyl maltotrioside) were “very weak hygroscopicity” and “substantially non-hygroscopic”, respectively.
